# Reference: patent US8011774B2, “Azo dye, colored composition, heat-sensitive transfer recording ink sheet, heat-sensitive transfer recording method, color toner, inkjet ink and color filter” (Fujifilm Corporation, priority 2006, dated 2011)
# Key:
# Type in all cases: physicochemical
# [1] = Maximum absorption wavelength of absorption spectrum in ethyl acetate solution; conditions: 1×10^−6 mol/L, optical path length 10 mm
# Procedure: A mixture of 3.53 g of Intermediate (7a) (0.01 mol), 2.76 g of potassium carbonate (0.02 mol) and dimethylacetamide (15 ml) was stirred at 0° C. To the mixture was gradually dropped 4.23 g (0.03 mol) of methyl iodide. After stirring for 3 hours at room temperature, 50 ml of water was added thereto. After extraction with 50 ml of ethyl acetate, the extracted solution was washed with saturated brine. Then, the extracted solution was concentrated with a rotary evaporator. Thus-obtained residue was purified using a silica gel chromatography (developing solvent: ethyl acetate/hexane=1/4, v/v). A yellow powder of Exemplified compound (7) was obtained. Yield: 3.01 g (82%), Melting Point: 192° C. λmax (ethyl acetate solution) of the Exemplified compound (7) was 442 nm.
# Exemplified compounds (1), (5), (8), (9), (10), (13) and (23) were synthesized in the manner described above. In Table 1 shown below, are indicated the maximum absorption wavelength in each of absorption spectra of the thus-obtained Exemplified compounds (1), (5), (8), (9), (10), (13) and (23) in an ethyl acetate solution (Density: 1×10^−6 mol/L, Optical path length: 10 mm) and melting points of these compounds, together with the Exemplified compounds (7) obtained in the Synthesis Examples.
# [2] = Solubility of dye when preparing ink sheet dye-providing layer coating composition; design: key: A: The dye easily dissolves.; B: The dye dissolves.; C: The dye is sparingly soluble, but dissolves; conditions: dye 5.5 parts, polyvinylbutyral resin, methyl ethyl ketone/toluene (1/1) coating composition
# Procedure: As a support, was used a 6 μm thick polyester film, a back surface of which had been subjected to a heat resistant lubricating processing with a 1 μm thick thermosetting acrylic resin (Lumirror (trade name), a product of Toray). On the front surface of the support, the following dye-providing layer-coating composition was coated by a wire bar coating so that a dry thinness of the dye-providing layer became 1 μm. Thus, Ink sheet 1 was prepared.
# Solubility of these dyes contained in these ink sheets were evaluated according to the following three grades;
# A: The dye easily dissolves.
# C: The dye is sparingly soluble, but dissolves.
# [3] = Deposition of dye with lapse of time in the ink sheet, examined by eye; design: key: A: No precipitation is observed.; B: Precipitation is slightly observed.; C: Precipitation is apparently observed; conditions: deposition of dye with a lapse of time in the ink sheet
# Source text: Further, deposition of dyes with a lapse of time in the ink sheet was examined by a native eye, thereby to evaluate based on the following three grades:
# A: No precipitation is observed.
# B: Precipitation is slightly observed.
# C: Precipitation is apparently observed.
# [4] = Light stability (light resistance) of transferred dye image under Xenon light; conditions: Xenon light 17,000 lux, 7 days; residual ratio of Status A reflection density 1.0
# Procedure: Next, each of the thus image-recorded thermal transfer image-receiving material was exposed to Xenon light (17,000 lux) for 7 days to examine light stability (light resistance) of the dye image. Status A reflection densities after exposure were measured in the portions indicating status A reflection density of 1.0. A stability of the image was evaluated in terms of a residual ratio (percentage) based on the reflection destiny before exposure according to the following three grades:
# A: 80% or more, but 100% or less
# B: 60% or more, but […]
Maximum absorption wavelength [1],Solubility [2],Precipitation [3],Light resistance [4],Structure (SMILES)
434 nm,A,A,"A (80% or more, but 100% or less)",Cc1nn2nc(C(C)(C)C)c(N=Nc3c(C#N)c(C(C)(C)C)nn3C)c2n1C [Dye (1)]
441 nm,A,A,"A (80% or more, but 100% or less)",CCn1nc(C(C)(C)C)c(C#N)c1/N=N/c1c(C(C)(C)C)nn2c(C)nn(CC)c12 [Dye (8)]
441 nm,A,A,"A (80% or more, but 100% or less)",CCc1nn(C)c2c(/N=N/c3c(C#N)c(C(C)(C)C)nn3C)c(C(C)(C)C)nn12 [Dye (9)]
443 nm,A,A,"A (80% or more, but 100% or less)",CC(C)c1nn(C)c2c(/N=N/c3c(C#N)c(C(C)(C)C)nn3C)c(C(C)(C)C)nn12 [Dye (10)]
471 nm,,,,Cc1nsc(/N=N/c2c(C(C)(C)C)nn3c(C(C)C)nn(C)c23)c1C#N [Dye (13)]
,A,A,"A (80% or more, but 100% or less)",Cc1nn(C)c2c(/N=N/c3nc4ccccc4n3C)c(C(C)(C)C)nn12 [Dye (14)]
449 nm,A,A,"A (80% or more, but 100% or less)",CCSc1nnc(/N=N/c2c(C(C)(C)C)nn3c(C(C)C)nn(CC)c23)s1 [Dye (23)]
,A,A,"A (80% or more, but 100% or less)",CCSc1nnc(/N=N/c2c(C(C)(C)C)nn3nc(C(C)C)n(C)c23)s1 [Dye (28)]
,B,B,"B (60% or more, but less than 100%)","CCSc1nnc(N=Nc2c(C(C)(C)C)nn3c(C(C)C)n[nH]c23)s1 [Dye for Comparison 1, reference compound]"
,A,A,C (less than 60%),"CCN(CCOc1ccc(C2CCCCC2)cc1)c1ccc(C=C(C#N)C#N)cc1 [Dye for Comparison 3, reference compound]"

Structure (SMILES),Maximum absorption wavelength [1],Solubility [2],Precipitation [3],Light resistance [4]
Cc1nn(C)c2c(N=Nc3c(C#N)c(C(C)(C)C)nn3C)c(C(C)(C)C)nn12 [Dye (7)],442 nm,A,A,"A (80% or more, but 100% or less)"
